Experimental data reported in ChEMBL document CHEMBL1255461, “KPC-producing extreme drug-resistant Klebsiella pneumoniae isolate from a patient with diabetes mellitus and chronic renal failure on hemodialysis in South Korea” (2010).
In brackets after ≈: the same amount, converted by molar mass.

System: Klebsiella pneumoniae
Assay: Antimicrobial activity against multidrug-resistant Klebsiella pneumoniae isolate Kpn-DK2 by broth microdilution method
Type: functional

CO/N=C(\C(=O)N[C@@H]1C(=O)N2C(C(=O)[O-])=C(C[N+]3(C)CCCC3)CS[C@H]12)c1csc(N)n1
MIC: > 64 µg/mL

CC1(C)S[C@@H]2[C@H](NC(=O)[C@H](N)c3ccccc3)C(=O)N2[C@H]1C(=O)O [AMPICILLIN]
MIC: > 64 µg/mL

C[C@H]1[C@H](NC(=O)/C(=N\OC(C)(C)C(=O)O)c2csc(N)n2)C(=O)N1S(=O)(=O)O [AZTREONAM]
MIC: > 64 µg/mL

CCN1CCN(C(=O)N[C@@H](C(=O)N[C@@H]2C(=O)N3C(C(=O)O)=C(CSc4nnnn4C)CS[C@H]23)c2ccc(O)cc2)C(=O)C1=O [CEFOPERAZONE]
MIC: > 64 µg/mL

CO/N=C(\C(=O)N[C@@H]1C(=O)N2C(C(=O)O)=C(COC(C)=O)CS[C@H]12)c1csc(N)n1 [CEFOTAXIME]
MIC: > 128 µg/mL

CC(C)(O/N=C(\C(=O)N[C@@H]1C(=O)N2C(C(=O)[O-])=C(C[n+]3ccccc3)CS[C@H]12)c1csc(N)n1)C(=O)O [CEFTAZIDIME]
MIC: > 64 µg/mL

Nc1nc(/C(=N/O)C(=O)N[C@@H]2C(=O)N3C(C(=O)O)=C(/C=C4\CCN([C@@H]5CCNC5)C4=O)CS[C@H]23)ns1 [CEFTOBIPROLE]
MIC: > 32 µg/mL

C[C@@H](O)[C@H]1C(=O)N2C(C(=O)O)=C(S[C@@H]3CN[C@H](CNS(N)(=O)=O)C3)[C@H](C)[C@H]12 [DORIPENEM]
MIC: 16 µg/mL (≈ 38 µM)

C[C@@H](O)[C@H]1C(=O)N2C(C(=O)O)=C(SCCNC=N)C[C@H]12 [IMIPENEM ANHYDROUS]
MIC: 32 µg/mL (≈ 107 µM)

CCN1CCN(C(=O)N[C@@H](C(=O)N[C@@H]2C(=O)N3[C@@H]2SC(C)(C)[C@@H]3C(=O)O)c2ccccc2)C(=O)C1=O [PIPERACILLIN]
MIC: > 256 µg/mL

CC1(C)[C@H](C(=O)O)N2C(=O)C[C@H]2S1(=O)=O [SULBACTAM]
MIC: 32 µg/mL (≈ 137 µM)

C[C@]1(Cn2ccnn2)[C@H](C(=O)O)N2C(=O)C[C@H]2S1(=O)=O [TAZOBACTAM]
MIC: 4 µg/mL (≈ 13.3 µM)

CN(C)c1cc(NC(=O)CNC(C)(C)C)c(O)c2c1C[C@H]1C[C@H]3[C@H](N(C)C)C(O)=C(C(N)=O)C(=O)[C@@]3(O)C(O)=C1C2=O [TIGECYCLINE]
MIC: 4 µg/mL (≈ 6.83 µM)

COc1cc(Cc2cnc(N)nc2N)cc(OC)c1OC [TRIMETHOPRIM]
MIC: > 32 µg/mL

COLISTIN
MIC: > 64 µg/mL

GENTAMICIN
MIC: > 64 µg/mL

POLYMYXIN B
MIC: > 64 µg/mL
